Measured values published in patent US9708272B2, “Inhibitors of α-amino-β-carboxymuconic acid semialdehyde decarboxylase” (TES Pharma S.r.l., priority 2014, dated 2017).

What was measured:
[1] = test system: AML-12 cells; assay: Cytotoxicity (LDH release, ATP level) in AML-12 cells; type: cell-based, mouse; conditions: 10 nM to 300 μM; 4 hrs; DMSO 1%
Description: (§1) HePG2 and AML-12 cells are seeded and a dose-response of the compound is performed at various concentrations. Cells are stimulated and the supernatant is used to perform LDH release as a measure of necrosis while the cells are lysed to detect ATP levels for determining cell viability.
(§2) Cytotoxicity: 20000 HePG2 and AML-12 cells were seeded in 96 well plate (Viewplate PerkinElmer). Dose-response of the compound in Table 2 was performed using HP D300 digital dispenser, ranging from 10 nM to 300 μM with constant DMSO 1% in medium. Cells were stimulated for 4 hrs at 37° C.; the supernatant was used to perform LDH release (Cytotox-one, Promega) as a measure of necrosis while the cells were lysed to detect ATP level for determining cell viability (Celltiter-glo, Promega) according to manufacturer's instructions.

[2] = target: hERG potassium channel (Homo sapiens (Human), UniProt Q12809); assay: Predictor hERG assay, fluorescence polarization tracer displacement; conditions: hERG channel affinity binding; DMSO 1%
Description: The Predictor hERG assay kit is stably transfected with hERG potassium channel and a high-affinity red fluorescent hERG channel ligand and is used for the determination of hERG channel affinity binding of compounds of Formula (I), Formula (Ia), Formula (Ib), Formula (II), or Formula (III), or a pharmaceutically acceptable salt thereof. Compounds that bind to the hERG channel protein (competitors) are identified by their ability to displace the tracer which results in a lower fluorescence polarization.
The Predictor hERG assay kit (Invitrogen), containing membrane preparations from Chinese hamster ovary cells stably transfected with hERG potassium channel and a high-affinity red fluorescent hERG channel ligand (tracer), was used for the determination of hERG channel affinity binding of the test compounds in Table 2. Compounds that bind to the hERG channel protein (competitors) were identified by their ability to displace the tracer, resulting in a lower fluorescence polarization. The final concentration of DMSO in each well was maintained at 1%. The assays were performed according to the manufacturer's protocol (Invitrogen).

[3] = test system: HePG2 cells; assay: Cytotoxicity (LDH release, ATP level) in HePG2 cells; type: cell-based; conditions: 10 nM to 300 μM; 4 hrs; DMSO 1%
Description: as §1, §2

[4] = test system: Caspase 3/7; assay: Modulation of caspase 3/7 activity in MDCK cells injured with cisplatin; type: cell-based
Description: MDCK cells are cultured in base medium to a final concentration of 10%. Cells are plated into 96 wells and 24 hours after cell plating the medium is changed with fresh medium supplemented with 1% FBS. Cisplatin is then used to induce cell injury. Different concentrations of Formula (I), Formula (Ia), Formula (Ib), Formula (II), or Formula (III), or a pharmaceutically acceptable salt thereof (in DMSO) are added in combination with cisplatin or prior to adding cisplatin. Caspase 3/7 activity (Promega) is determined according to standard procedures using a luminescent signal readout on a plate reader. Each experiment/condition is performed in triplicate. Caspase activity is analyzed as percentage effect normalized to the cisplatin alone and vehicle treated cells.
MDCK cells (MDCK (NBL-2) ATCC® CCL-34™) were cultured in base medium ATCC-formulated Eagle's Minimum Essential Medium, Catalog No. 30-2003 with fetal bovine serum (FBS) to a final concentration of 10%. […]
Caspase 3/7 activity (Promega) was determined according to standard procedures using a luminescent signal readout on a Victor V plate reader (PerkinElmer). […]
Caspase activity was analyzed as percentage effect normalized to the cisplatin alone (100%) and vehicle treated cells as 0% of caspase activity. Data were analyzed by GraphPad Software. […]

Sequence of hERG potassium channel (Q12809 whole entry): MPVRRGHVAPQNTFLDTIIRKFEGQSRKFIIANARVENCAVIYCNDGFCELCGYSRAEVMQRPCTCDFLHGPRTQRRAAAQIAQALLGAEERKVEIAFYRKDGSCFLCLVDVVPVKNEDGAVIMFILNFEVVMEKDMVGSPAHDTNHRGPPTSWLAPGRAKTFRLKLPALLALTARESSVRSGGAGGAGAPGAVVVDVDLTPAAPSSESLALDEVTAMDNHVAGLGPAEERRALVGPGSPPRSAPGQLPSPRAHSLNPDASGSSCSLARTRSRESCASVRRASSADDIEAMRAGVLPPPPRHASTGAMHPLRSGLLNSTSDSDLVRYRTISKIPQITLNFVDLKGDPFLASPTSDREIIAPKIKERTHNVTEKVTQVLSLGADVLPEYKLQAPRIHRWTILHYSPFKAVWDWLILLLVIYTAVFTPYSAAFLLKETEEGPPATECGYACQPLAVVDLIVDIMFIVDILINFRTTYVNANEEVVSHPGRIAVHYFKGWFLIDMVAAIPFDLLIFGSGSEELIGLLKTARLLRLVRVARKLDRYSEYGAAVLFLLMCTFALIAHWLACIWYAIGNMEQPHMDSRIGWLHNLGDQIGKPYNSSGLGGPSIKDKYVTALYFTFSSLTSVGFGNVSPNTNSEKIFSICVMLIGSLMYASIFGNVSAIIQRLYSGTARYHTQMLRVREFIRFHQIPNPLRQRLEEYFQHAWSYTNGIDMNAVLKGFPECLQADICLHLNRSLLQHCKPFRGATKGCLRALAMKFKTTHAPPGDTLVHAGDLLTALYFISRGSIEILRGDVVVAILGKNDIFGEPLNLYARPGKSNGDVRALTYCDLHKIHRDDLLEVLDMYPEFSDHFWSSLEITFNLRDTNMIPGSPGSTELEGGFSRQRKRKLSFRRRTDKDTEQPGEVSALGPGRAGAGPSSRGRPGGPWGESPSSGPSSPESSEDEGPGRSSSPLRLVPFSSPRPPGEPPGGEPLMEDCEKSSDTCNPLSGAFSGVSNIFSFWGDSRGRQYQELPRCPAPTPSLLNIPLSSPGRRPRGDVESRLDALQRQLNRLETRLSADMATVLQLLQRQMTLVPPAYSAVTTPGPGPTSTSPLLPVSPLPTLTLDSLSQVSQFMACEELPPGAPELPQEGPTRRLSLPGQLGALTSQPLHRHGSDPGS

SMILES | Cytotoxicity AML-12 [1] | hERG [2] | Cytotoxicity Hep-G2 [3] | activity of caspase 3/7 induced by cisplatin ([4]; cisplatin 50 μM for 16 hrs) | concentration with significant decrease of caspase activity vs cisplatin alone (p<0.001) ([4]; in combination with cisplatin)
N#Cc1c(-c2nccs2)nc(SCc2cccc(C(=O)O)c2)[nH]c1=O [Compound 5] | Not Toxic | No Activity | Not Toxic | – | –
N#Cc1c(-c2ccc(Cl)cc2)nc(SCc2ccc(C(=O)O)cc2)[nH]c1=O [Compound 8] | Not Toxic | No Activity | Not Toxic | – | –
O=C(O)c1cccc(CSc2nc(-c3ccccc3)c(Br)c(=O)[nH]2)c1 [Compound 11] | Not Toxic | No Activity | Not Toxic | – | –
N#Cc1c(-c2cccs2)nc(SCc2cccc(CC(=O)O)c2)[nH]c1=O [Compound 18] | – | – | – | decreases, in significant manner | 100 µM
N#Cc1c(-c2cccs2)nc(SCc2cccc(-c3noc(=O)[nH]3)c2)[nH]c1=O [Compound 19] | Not Toxic | No Activity | Not Toxic | – | –
